Experimental data taken from ChEMBL document CHEMBL1629666, “Quinolone resistance in Neisseria gonorrhoeae: rapid genotyping of quinolone resistance-determining regions in gyrA and parC genes by melting curve analysis predicts susceptibility” (2009).
In brackets after ≈: the same amount, converted by molar mass.

Legend:
Neisseria gonorrhoeae [1] = test: Antimicrobial activity against Neisseria gonorrhoeae isolate IPC-NG7 harboring gyrA S91F, D95G and parC S87N and E91Q mutant gene by Etest
Neisseria gonorrhoeae [2] = test: Antimicrobial activity against Neisseria gonorrhoeae 98G0872 harboring gyrA S91F, D95N and parC E91K mutant gene by Etest
Neisseria gonorrhoeae [3] = test: Antimicrobial activity against Neisseria gonorrhoeae isolate IPC-NG16 harboring gyrA S91F, D95A and parC S87R mutant gene by Etest
Neisseria gonorrhoeae [4] = test: microbe, parasite or virus in culture; settings: isolate 108 175 340
Description: Antimicrobial activity against Neisseria gonorrhoeae isolate 108 175 340 harboring gyrA S91F, D95G and parC E91G mutant gene by Etest

Neisseria gonorrhoeae [5] = test: Antimicrobial activity against Neisseria gonorrhoeae isolate IPC-NG19 harboring gyrA S91F, D95A and parC S87N mutant gene by Etest
Neisseria gonorrhoeae [6] = test: Antimicrobial activity against Neisseria gonorrhoeae WHO. M harboring gyrA S91F and D95G mutant gene by Etest
Neisseria gonorrhoeae [7] = test: Antimicrobial activity against Neisseria gonorrhoeae 91G0316 harboring gyrA S91F mutant gene by Etest
Neisseria gonorrhoeae [8] = test: Antimicrobial activity against Neisseria gonorrhoeae 93G0065 harboring gyrA D95N mutant gene by Etest
Neisseria gonorrhoeae [9] = test: Antimicrobial activity against Neisseria gonorrhoeae 97G0109 harboring gyrA S91F, D95G and parC D86N mutant gene by Etest
Neisseria gonorrhoeae [10] = test: Antimicrobial activity against Neisseria gonorrhoeae isolate IPC-NG6 harboring gyrA S91F, D95Y and parC E91G mutant gene by Etest
Neisseria gonorrhoeae [11] = test: Antimicrobial activity against Neisseria gonorrhoeae 98G0867 harboring gyrA S91F, D95G and parC S87R mutant gene by Etest
Neisseria gonorrhoeae [12] = test: Antimicrobial activity against Neisseria gonorrhoeae WHO. G harboring gyrA S91F mutant gene by Etest
Neisseria gonorrhoeae [13] = test: Antimicrobial activity against Neisseria gonorrhoeae 97G0398 harboring gyrA S91F, D95G and parC S88P mutant gene by Etest
Neisseria gonorrhoeae [14] = test: Antimicrobial activity against Neisseria gonorrhoeae isolate IPC-NG14 harboring gyrA S91F and D95A mutant gene by Etest
Neisseria gonorrhoeae [15] = test: Antimicrobial activity against Neisseria gonorrhoeae isolate IPC-NG18 harboring gyrA S91F, D95A and parC S87N mutant gene by Etest
Neisseria gonorrhoeae [16] = test: Antimicrobial activity against Neisseria gonorrhoeae 96G0142 harboring gyrA S91Y and parC E91Q mutant gene by Etest
Neisseria gonorrhoeae [17] = test: Antimicrobial activity against Neisseria gonorrhoeae 95G0142 harboring gyrA S91F, D95N and parC S87R mutant gene by Etest
Neisseria gonorrhoeae [18] = test: Antimicrobial activity against Neisseria gonorrhoeae 98G0959 harboring gyrA D95N mutant gene by Etest
Neisseria gonorrhoeae [19] = test: Antimicrobial activity against Neisseria gonorrhoeae isolate IPC-NG8 by Etest
Neisseria gonorrhoeae [20] = test: Antimicrobial activity against Neisseria gonorrhoeae WHO. P by Etest
Neisseria gonorrhoeae [21] = test: Antimicrobial activity against Neisseria gonorrhoeae isolate IPC-NG2 harboring gyrA S91F, D95Y and parC E91G mutant gene by Etest
Neisseria gonorrhoeae [22] = test: Antimicrobial activity against Neisseria gonorrhoeae 97G0319 harboring gyrA D95G mutant gene by Etest
Neisseria gonorrhoeae [23] = test: Antimicrobial activity against Neisseria gonorrhoeae 98G0798 harboring gyrA S91F mutant gene by Etest
Neisseria gonorrhoeae [24] = test: Antimicrobial activity against Neisseria gonorrhoeae 07 QA 06 harboring gyrA S91F mutant gene by Etest
Neisseria gonorrhoeae [25] = test: Antimicrobial activity against Neisseria gonorrhoeae 92G0551 harboring gyrA S91Y mutant gene by Etest
Neisseria gonorrhoeae [26] = test: Antimicrobial activity against Neisseria gonorrhoeae isolate IPC-NG13 harboring gyrA S91F, D95A and parC S87N and E91Q mutant gene by Etest
Neisseria gonorrhoeae [27] = test: Antimicrobial activity against Neisseria gonorrhoeae 07 QA 02 by Etest
Neisseria gonorrhoeae [28] = test: Antimicrobial activity against Neisseria gonorrhoeae WHO. C by Etest
Neisseria gonorrhoeae [29] = test: Antimicrobial activity against Neisseria gonorrhoeae isolate IPC-NG1 harboring gyrA S91F, D95Y and parC E91G mutant gene by Etest
Neisseria gonorrhoeae [30] = test: Antimicrobial activity against Neisseria gonorrhoeae isolate IPC-NG10 harboring gyrA S91F, D95G and parC S87R mutant gene by Etest
Neisseria gonorrhoeae [31] = test: Antimicrobial activity against Neisseria gonorrhoeae isolate IPC-NG5 harboring gyrA S91F, D95A and parC E91G mutant gene by Etest
Neisseria gonorrhoeae [32] = test: Antimicrobial activity against Neisseria gonorrhoeae WHO. L harboring gyrA S91F, D95N and parC D86N and S88P mutant gene by Etest
Neisseria gonorrhoeae [33] = test: Antimicrobial activity against Neisseria gonorrhoeae WHO. O by Etest
Neisseria gonorrhoeae [34] = test: Antimicrobial activity against Neisseria gonorrhoeae 91G0622 harboring gyrA D95N mutant gene by Etest
Neisseria gonorrhoeae [35] = test: Antimicrobial activity against Neisseria gonorrhoeae isolate IPC-NG3 harboring gyrA S91F and D95A mutant gene by Etest
Neisseria gonorrhoeae [36] = test: Antimicrobial activity against Neisseria gonorrhoeae isolate IPC-NG9 harboring gyrA S91F, D95A and parC S87N and E91Q mutant gene by Etest

**Q.** What does the source list for `O=C(O)c1cn(C2CC2)c2cc(N3CCNCC3)c(F)cc2c1=O` [CIPROFLOXACIN]?
**A.** MIC (Neisseria gonorrhoeae [1]): > 32 µg/mL; MIC (Neisseria gonorrhoeae [2]): 8 µg/mL (≈ 24.1 µM); MIC (Neisseria gonorrhoeae [3]): 1.5 µg/mL (≈ 4.53 µM); MIC (Neisseria gonorrhoeae [4]): 4 µg/mL (≈ 12.1 µM); MIC (Neisseria gonorrhoeae [5]): > 32 µg/mL; MIC (Neisseria gonorrhoeae [6]): 2 µg/mL (≈ 6.04 µM); MIC (Neisseria gonorrhoeae [7]): 0.5 µg/mL (≈ 1.51 µM); MIC (Neisseria gonorrhoeae [8]): 0.125 µg/mL (≈ 0.377 µM); MIC (Neisseria gonorrhoeae [9]): 2 µg/mL (≈ 6.04 µM); MIC (Neisseria gonorrhoeae [10]): > 32 µg/mL; MIC (Neisseria gonorrhoeae [11]): 8 µg/mL (≈ 24.1 µM); MIC (Neisseria gonorrhoeae [12]): 0.25 µg/mL (≈ 0.754 µM); MIC (Neisseria gonorrhoeae [13]): 2 µg/mL (≈ 6.04 µM); MIC (Neisseria gonorrhoeae [14]): 3 µg/mL (≈ 9.05 µM); MIC (Neisseria gonorrhoeae [15]): > 32 µg/mL; MIC (Neisseria gonorrhoeae [16]): 1 µg/mL (≈ 3.02 µM); MIC (Neisseria gonorrhoeae [17]): 32 µg/mL (≈ 96.6 µM); MIC (Neisseria gonorrhoeae [18]): 0.25 µg/mL (≈ 0.754 µM); MIC (Neisseria gonorrhoeae [19]): 0.016 µg/mL (≈ 0.0483 µM); MIC (Neisseria gonorrhoeae [20]): 0.016 µg/mL (≈ 0.0483 µM); MIC (Neisseria gonorrhoeae [21]): > 32 µg/mL; MIC (Neisseria gonorrhoeae [22]): 0.125 µg/mL (≈ 0.377 µM); MIC (Neisseria gonorrhoeae [23]): 1 µg/mL (≈ 3.02 µM); MIC (Neisseria gonorrhoeae [24]): 0.38 µg/mL (≈ 1.15 µM); MIC (Neisseria gonorrhoeae [25]): 0.5 µg/mL (≈ 1.51 µM); MIC (Neisseria gonorrhoeae [26]): 12 µg/mL (≈ 36.2 µM); MIC (Neisseria gonorrhoeae [27]): 0.023 µg/mL (≈ 0.0694 µM); MIC (Neisseria gonorrhoeae [28]): 0.016 µg/mL (≈ 0.0483 µM); MIC (Neisseria gonorrhoeae [29]): > 32 µg/mL; MIC (Neisseria gonorrhoeae [30]): > 32 µg/mL; MIC (Neisseria gonorrhoeae [31]): > 32 µg/mL; MIC (Neisseria gonorrhoeae [32]): 16 µg/mL (≈ 48.3 µM); MIC (Neisseria gonorrhoeae [33]): 0.016 µg/mL (≈ 0.0483 µM); MIC (Neisseria gonorrhoeae [34]): 0.125 µg/mL (≈ 0.377 µM); MIC (Neisseria gonorrhoeae [35]): 3 µg/mL (≈ 9.05 µM); MIC (Neisseria gonorrhoeae [36]): 16 µg/mL (≈ 48.3 µM)
